Test system: HCT116 cells
Assay: Cell viability assay (CellTiter-Glo, 72 hours) in HCT116 human colorectal cancer cells
Format: cell-based
Conditions: Table 1; HCT116, 72 hours; read-out: Activity
Procedure: Cell culture: The HCT116 cell line was obtained from ATCC and cultured in Dulbecco's Modified Eagle's Medium (DMEM)-high glucose (Sigma Aldrich #D5796) supplemented with 10% fetal bovine serum (FBS) (Sigma-Aldrich #F2442) and 2 mM L-Glutamine (Sigma Aldrich #G7513). Cells were cultured at 37° C. in 5% CO2. The identity of all cell lines was confirmed by short tandem repeat (STR) analysis and confirmed to be mycoplasma-free using a PCR based assay (Genatlantis).
Cell viability assay: In 96-well assay plates (Corning #2903), 2,000 cells were plated per well in 100 μL of medium and allowed to adhere overnight. The next day, compounds suspended in DMSO were dispensed to the assayed wells using a D300e Digital Dispenser (Tecan). All wells were normalized to 0.5% DMSO. 72 hours after incubation at 37° C. in 5% CO2, cell viability was assayed using an ATP-based luminescent viability assay, CellTiter-Glo (Promega #G8462). Substrate was mixed 1:1 with phosphate-buffered saline (PBS) supplemented with 1% Triton X-100, and 40 μL of this mixture was added to the assay wells. Plates were shaken on a microplate shaker for 10 minutes at room temperature. Luminescence (CellTiter-Glo) was recorded using a Synergy 2 microplate reader (BioTek). In Prism 9 software (GraphPad), ten-point dose response curves were plotted with baseline-correction to the vehicle control well, and IC50 values were calculated by curve fitting using asymmetric (five parameter), least squares fit.

IC50 [nM]	Compound
< 500	CC#CCN1C(=O)c2ccc(Cl)cc2Sc2cc(NC(=O)N3CCC3)ccc21
< 500	CC#CCN1C(=O)c2ccc(Cl)cc2Sc2cc(NC(=O)N3CCCCC3)ccc21
< 500	CC#CCN1C(=O)c2ccccc2Sc2cc(NC(=O)N3CCCCC3)ccc21
< 500	CC#CCN1C(=O)c2ccccc2Sc2cc(NC(=O)N3CCCC3)cnc21

Same assay, conditions: Table 2; HCT116, 72 hours; read-out: Activity

IC50 [nM]	Compound
< 500	CC#CCN1C(=O)c2ccc(Cl)cc2Sc2cc(NC(=S)N3CCC3)ccc21
< 500	CC#CCN1C(=O)c2ccccc2Sc2cc(NC(=S)N3CCCCC3)ccc21
< 500	CC#CCN1C(=O)c2ccccc2Sc2cc(NC(=S)N3CCCC3)ccc21
< 500	CC#CCN1C(=O)c2ccccc2Sc2cc(NC(=S)N3CCCC3)cnc21

Same assay, conditions: Table 3; HCT116, 72 hours; read-out: Activity

Compound	IC50 [nM]
CC#CCN1C(=O)c2ccccc2Sc2cc(NC(=O)Nc3ccc4oc(C)nc4c3)ccc21	< 500
CC#CCN1C(=O)c2ccccc2Sc2cc(NC(=O)NC34CC(OC)(C3)C4)ccc21	< 500
CC#CCN1C(=O)c2ccccc2Sc2cc(NC(=O)Nc3ccc4oc(=O)n(C)c4c3)ccc21	< 500
CC#CCN1C(=O)c2ccccc2Sc2cc(NC(=O)Nc3ccc4oc(=O)n(C)c4c3)cnc21	< 500

Other lines, results leading:

IC50 [nM]	Compound
< 500	CC#CCN1C(=O)c2ccccc2Sc2cc(NC(=O)NC34CC(OC)(C3)C4)cnc21
< 500	CC#CCN1C(=O)c2ccccc2Sc2cc(NC(=O)Nc3ccc4scnc4c3)cnc21

Same assay, conditions: Table 4; HCT116, 72 hours; read-out: Activity

IC50 [nM]	Compound
< 500	CC#CCN1C(=O)c2ccccc2Sc2cc(NC(=S)Nc3ccc4oc(=O)n(C)c4c3)cnc21
< 500	CC#CCN1C(=O)c2ccccc2Sc2cc(NC(=S)Nc3ccc4oc(=O)n(C)c4c3)ccc21
< 500	CC#CCN1C(=O)c2ccccc2Sc2cc(NC(=S)Nc3ccc4scnc4c3)ccc21
< 500	CC#CCN1C(=O)c2ccccc2Sc2cc(NC(=S)Nc3ccc4scnc4c3)cnc21

Same assay, conditions: Table 5; HCT116, 72 hours; read-out: Activity

Compound	IC50 [nM]
O=C1c2ccccc2Sc2cc(Nc3cccnn3)ccc2N1CC#CCl	< 500
O=C1c2ccccc2Sc2cc(Nc3cccnn3)cnc2N1CC#CCl	< 500
C#CCN1C(=O)c2ccccc2Sc2cc(Nc3nnccc3C)ccc21	< 500
C#CCN1C(=O)c2ccccc2Sc2cc(Nc3cccnn3)ccc21	< 500
C#CCN1C(=O)c2ccccc2Sc2cc(Nc3cccnn3)cnc21	< 500
CC#CCN1C(=O)c2ccccc2Sc2cc(Nc3cccnn3)cnc21	< 500
CC=CCN1C(=O)c2ccccc2Sc2cc(Nc3ncccc3C#N)ccc21	< 500
CC=CCN1C(=O)c2ccccc2Sc2cc(Nc3ncccc3C#N)cnc21	< 500
CC=CCN1C(=O)c2ccccc2Sc2cc(Nc3ncccc3F)ccc21	< 500
CC=CCN1C(=O)c2ccccc2Sc2cc(Nc3ncccc3F)cnc21	< 500
CC=CCN1C(=O)c2ccccc2Sc2cc(Nc3nccnc3C)ccc21	< 500
CC=CCN1C(=O)c2ccccc2Sc2cc(Nc3ncccc3C)ccc21	< 500
CC=CCN1C(=O)c2ccccc2Sc2cc(Nc3ncccc3C)cnc21	< 500
CC=CCN1C(=O)c2ccccc2Sc2cc(Nc3ncc(C)cc3C)ccc21	< 500
CC=CCN1C(=O)c2ccccc2Sc2cc(Nc3ncc(C)cc3C)cnc21	< 500
CCCC=CCN1C(=O)c2ccccc2Sc2cc(Nc3ncccc3C#N)cnc21	< 500
CCCC=CCN1C(=O)c2ccccc2Sc2cc(Nc3ncccc3F)cnc21	< 500
CCCC=CCN1C(=O)c2ccccc2Sc2cc(Nc3ncc(C)cc3C)cnc21	< 500

Next, values leading:

IC50 [nM]	Compound
< 500	Cc1ccc(F)c(Nc2ccc3c(c2)Sc2ccccc2C(=O)N3CC#CCl)n1
< 500	Cc1ccc(F)c(Nc2cnc3c(c2)Sc2ccccc2C(=O)N3CC#CCl)n1
< 500	Cc1cnc(Nc2cnc3c(c2)Sc2ccccc2C(=O)N3CC#CCl)c(C)n1
< 500	Cc1cnc(Nc2ccc3c(c2)Sc2ccccc2C(=O)N3CC#CCl)c(C)c1
< 500	Cc1cnc(Nc2cnc3c(c2)Sc2ccccc2C(=O)N3CC#CCl)c(C)c1
< 500	Cc1cnc(C)c(Nc2ccc3c(c2)Sc2ccccc2C(=O)N3CC#CCl)n1
< 500	Cc1cnc(C)c(Nc2cnc3c(c2)Sc2ccccc2C(=O)N3CC#CCl)n1
< 500	Cc1ccnnc1Nc1ccc2c(c1)Sc1ccccc1C(=O)N2CC#CCl
< 500	Cc1ccnnc1Nc1cnc2c(c1)Sc1ccccc1C(=O)N2CC#CCl
< 500	C#CCN1C(=O)c2ccccc2Sc2cc(Nc3nc(C)ccc3F)cnc21
< 500	C#CCN1C(=O)c2ccccc2Sc2cc(Nc3ncc(C)nc3C)ccc21
< 500	C#CCN1C(=O)c2ccccc2Sc2cc(Nc3ncc(C)nc3C)cnc21
< 500	C#CCN1C(=O)c2ccccc2Sc2cc(Nc3ncc(C)cc3C)ccc21
< 500	C#CCN1C(=O)c2ccccc2Sc2cc(Nc3ncc(C)cc3C)cnc21
< 500	C#CCN1C(=O)c2ccccc2Sc2cc(Nc3nc(C)cnc3C)ccc21
< 500	C#CCN1C(=O)c2ccccc2Sc2cc(Nc3nc(C)cnc3C)cnc21
< 500	CC#CCN1C(=O)c2ccccc2Sc2cc(Nc3ncccc3C#N)cnc21
< 500	CC#CCN1C(=O)c2ccccc2Sc2cc(Nc3ncccc3F)cnc21
< 500	CC#CCN1C(=O)c2ccccc2Sc2cc(Nc3nccc(C#N)c3F)cnc21

IC50 [nM]	Compound
< 500	CC#CCN1C(=O)c2ccccc2Sc2cc(Nc3nccc(C)c3F)cnc21
< 500	CC#CCN1C(=O)c2ccccc2Sc2cc(Nc3ncc(C)cc3F)cnc21
< 500	CC#CCN1C(=O)c2ccccc2Sc2cc(Nc3nc(C)ccc3F)cnc21
< 500	CC#CCN1C(=O)c2ccccc2Sc2cc(Nc3ncccc3C)cnc21
< 500	CC#CCN1C(=O)c2ccccc2Sc2cc(Nc3ncccc3OC)cnc21
< 500	CC#CCN1C(=O)c2ccccc2Sc2cc(Nc3nccc(C#N)c3C)cnc21
< 500	CC#CCN1C(=O)c2ccccc2Sc2cc(Nc3ncc(C#N)cc3C)cnc21
< 500	CC#CCN1C(=O)c2ccccc2Sc2cc(Nc3nc(C#N)ccc3C)cnc21
< 500	CC#CCN1C(=O)c2ccccc2Sc2cc(Nc3ncc(C)nc3C)cnc21
< 500	CC#CCN1C(=O)c2ccccc2Sc2cc(Nc3ncc(C)cc3C)cnc21
< 500	CC#CCN1C(=O)c2ccccc2Sc2cc(Nc3nc(C)cnc3C)cnc21
< 500	CC#CCN1C(=O)c2ccccc2Sc2cc(Nc3nnccc3C#N)cnc21
< 500	CC#CCN1C(=O)c2ccccc2Sc2cc(Nc3nnccc3C)cnc21
< 500	CC#CCN1C(=O)c2ccccc2Sc2cc(Nc3cc(C)cnn3)cnc21
< 500	CC#CCN1C(=O)c2ccccc2Sc2cc(Nc3ncnc(C#N)c3C)cnc21
< 500	CC#CCN1C(=O)c2ccccc2Sc2cc(Nc3ccc(C)nn3)cnc21
< 500	CC=CCN1C(=O)c2ccccc2Sc2cc(Nc3nccnc3C)cnc21
< 500	CCCC=CCN1C(=O)c2ccccc2Sc2cc(Nc3nccnc3C)cnc21

Same assay, conditions: Table 6; HCT116, 72 hours; read-out: Activity

Compound	IC50 [nM]
O=C1c2ccccc2Sc2cc(NC3CC4(COC4)C3)ccc2N1CC#CCl	< 500
COCC1CC(Nc2ccc3c(c2)Sc2ccccc2C(=O)N3CC#CCl)C1 (stereo not drawn)	< 500
C#CCN1C(=O)c2ccccc2Sc2cc(NC3CC4(COC4)C3)cnc21	< 500
CC#CCN1C(=O)c2ccccc2Cc2cc(NC3CC(CO)C3)ccc21 (stereo not drawn)	< 500
CC#CCN1C(=O)c2ccccc2Sc2cc(NC34CC(OC)(C3)C4)ccc21	< 500
CC#CCN1C(=O)c2ccccc2Cc2cc(NC34CC(OC)(C3)C4)ccc21	< 500
CC#CCN1C(=O)c2ccccc2Cc2cc(NC3CC(COC)C3)ccc21 (stereo not drawn)	< 500
CC#CCN1C(=O)c2ccccc2Sc2cc(NC3CC(COC)C3)ccc21 (stereo not drawn)	< 500
CC#CCN1C(=O)c2ccccc2Cc2cc(NC3CC4(CC(O)C4)C3)ccc21 (stereo not drawn)	< 500
CC#CCN1C(=O)c2ccccc2Sc2cc(NC3CC4(CC(O)C4)C3)ccc21 (stereo not drawn)	< 500
CC#CCN1C(=O)c2ccccc2Sc2cc(NC3CC4(CC(O)C4)C3)cnc21 (stereo not drawn)	< 500
CC#CCN1C(=O)c2ccccc2Sc2cc(NC3CC4(CC(=O)C4)C3)ccc21	< 500
CC#CCN1C(=O)c2ccccc2Sc2cc(NC34CC(C3)C4)ccc21	< 500
CC#CCN1C(=O)c2ccccc2Cc2cc(NC3COC3)ccc21	< 500
CC#CCN1C(=O)c2ccccc2Cc2cc(NC3CCCOC3)ccc21 (stereo not drawn)	< 500
CC#CCN1C(=O)c2ccccc2Sc2cc(NC3CCCOC3)cnc21 (stereo not drawn)	< 500

Other lines, results leading:

IC50 [nM]	Compound
< 500	O=C1c2ccccc2Sc2cc(NC3CC4(COC4)C3)cnc2N1CC#CCl
< 500	CC#CCN1C(=O)c2ccccc2Sc2cc(NC3CC4(COC4)C3)cnc21
< 500	CC#CCN1C(=O)c2ccccc2Sc2cc(NC34CC(OC)(C3)C4)cnc21
< 500	CC#CCN1C(=O)c2ccccc2Sc2cc(NC3CC4(CC(=O)C4)C3)cnc21
< 500	CC#CCN1C(=O)c2ccccc2Sc2cc(NCC3(C)COC3)cnc21
< 500	CC#CCN1C(=O)c2ccccc2Sc2cc(NC34CC(C3)C4)cnc21

Same assay, conditions: Table 7; cell viability assay, CellTiter-Glo, 72 hours; scaffold drawing 42 with R^2, R^3, X/Y, Z; read-out: Activity

IC50 [nM]	Compound
< 500	C#CCOCCN1C(=O)c2ccccc2Sc2cc(NC(=O)c3ccc4scnc4c3)ccc21

Reference: US20260097047A1, “Small molecule inhibitors of the ribosome biogenesis factor NVL2” (Board of Regents, The University of Texas System, priority 2023, published 2026)
